These are literature values, as cited in patent publication US12498364B2, “Use of soluble urokinase plasminogen activator receptor levels to indicate prevention of cardiovascular disease with a statin” (The Regents of the University of Michigan, priority 2019, dated 2025).

Entries after “also recorded” stand apart in the source; their conditions may differ.

For data set [1] the following is noted: cited from earlier work.
The target of the next data set is T1, interleukin 1β (Homo sapiens, UniProt P01584).
T1 construct: host or cells: patients (in vivo, endogenous cytokine)
The conditions noted are these: patients with heart disease and hs-CRP>2.0 mg/L; cited from earlier work.

For `CC(=O)S[C@@H]1CC2=CC(=O)CC[C@]2(C)[C@H]2CC[C@@]3(C)[C@@H](CC[C@@]34CCC(=O)O4)[C@H]12` [spironolactone], in data set [1] (overall study, HFpEF), the “incidence of the primary outcome” value is “did not decrease the incidence of the primary outcome”. Moreover, the “incidence of cardiovascular events compared to placebo” value in data set [1] (post-hoc, North American patients) was “lower incidence of cardiovascular events”.
Take canakinumab: in the data set with interleukin 1β, the “hs-CRP compared to placebo” value was “reduction in hs-CRP” and the “rate of cardiovascular events compared to placebo” value is listed as “lower rate of cardiovascular events; also recorded: reduced risk of adverse cardiovascular events”.
